Laboratory results taken from paper PMC3401542 (Bioorganic & medicinal chemistry, 2012).
Like-named read-outs stand apart in the source and are kept apart here.

Assays:
[1] = molecular target: neuraminidase of A/Solomon Islands/3/06 (H1N1) (Influenza A virus, UniProt B4URD9); type: biochemical; settings: read-out: Inhibition of Neuraminidase, IC50
[2] = molecular target: neuraminidase of A/Brisbane/59/07 (H1N1) (Influenza A virus, UniProt D5F1R0); test: biochemical; type: biochemical
[3] = molecular target: neuraminidase of A/Uruguay/716/07 (H3N2) (Influenza A virus, UniProt I6VF55); type: biochemical; settings: read-out: Inhibition of Neuraminidase, IC50
[4] = molecular target: neuraminidase of B/Malaysia/5206/04 (Influenza B virus, UniProt Q38G90); test: Neuraminidase inhibition, fluorogenic MUNANA substrate, purified intact virions; type: biochemical; settings: read-out: Inhibition of Neuraminidase, IC50
N2 NAs = settings: read-out: inhibition (IC50) of N2 NAs; range over N2 NAs; ref [28]; cited from earlier work
type B NAs = settings: read-out: inhibition (IC50) of type B NAs; range over type B NAs; ref [28]; cited from earlier work

Compound	improved N1 NA activity compared to the parent 3 [2]	IC50 [2] [µM]	also measured
4-(2,2-Bis(hydroxymethyl)-3-((3-pentyloxy)methyl)-5-oxopyrrolidin-1-yl)benzoic Acid [Compound 10c]	80–100 fold		IC50 [1]: 0.8 ± 0.07 µM; IC50 ([2]; read-out: Inhibition of Neuraminidase, IC50): 1 ± 0.21 µM; IC50 [3]: 0.5 ± 0.1 µM; IC50 [4]: 30 ± 1.4 µM
CCC(CC)O[C@@H]1C=C(C(=O)O)C[C@H](N)[C@H]1NC(C)=O [Compound 1c, oseltamivir carboxylate]			IC50 (N2 NAs): 0.00068 to 0.00178 µM; IC50 (type B NAs): 0.005 to 0.0243 µM
CC(C)OCc1cc(C(=O)O)ccc1N1C(=O)CCC1(CO)CO [Compound 10a, 4-(2,2-Bis(hydroxymethyl)-5-oxopyrrolidin-1-yl)-3-(isopropoxymethyl)benzoic Acid]		> 10000	
CCC(C)OCc1cc(C(=O)O)ccc1N1C(=O)CCC1(CO)CO (centres unmarked) [Compound 10b, 4-(2,2-Bis(hydroxymethyl)-5-oxopyrrolidin-1-yl)-3-(2-butoxymethyl)benzoic Acid]		16 ± 2.1	
CCC(=Cc1cc(C(=O)O)ccc1N1C(=O)CCC1(CO)CO)CC [Compound 13b, 4-(2,2-Bis (hydroxymethyl)-5-oxopyrrolidin-1-yl)-3-(2-ethylbut-1-enyl)benzoic Acid]	30–40 fold	2.4 ± 0.9	
CC(C)Cc1cc(C(=O)O)ccc1N1C(=O)CCC1(CO)CO [Compound 13c, 4-(2,2-Bis (hydroxymethyl)-5-oxopyrrolidin-1-yl)-3-isobutylbenzoic Acid]		70 ± 7.8	
CCC(CC)Cc1cc(C(=O)O)ccc1N1C(=O)CCC1(CO)CO [Compound 14b, 4-(2,2-Bis (hydroxymethyl)-5-oxopyrrolidin-1-yl)-3-(2-ethylbutyl)benzoic Acid]	30–40 fold	1.6 ± 0.6	
